Legend:
[1] = test system: SW620; assay: three day MTT cytotoxicity assay, SW620; assay type: cell-based, human; settings: SW620, 72 hours
Protocol: Briefly, a three day MTT cytotoxicity assay was performed, which is based on the principle of uptake of MTT (3-(4,5-dimethylthiazol-2-yl)-2,5-diphenyl tetrazolium bromide), a tetrazolium salt, by the metabolically active cells where it is metabolized by active mitochondria into a blue colored formazan product that is read spectrophotometrically. MIT was dissolved in phosphate buffered saline with a pH of 7.4 to obtain an MIT concentration of 5 mg/ml; the resulting mixture was filtered through a 0.22-micron filter to sterilize and remove a small amount of insoluble residue. For each type of tumor cell, 10,000 to 15,000 cells were seeded in a 96-well culture plate and incubated with the individual betulinic acid derivatives in a CO2 incubator for a total of 72 hours. Control cells not treated with the betulinic acid derivatives were similarly incubated. The assay was terminated by adding 100 μg (20 μl) of MIT to each well then incubating for additional one hour, and finally adding 50 μl of 10% SDS-0.01N HCl to each well to lyse the cells and dissolve formazan. After incubating for one hour, the plate was read spectrophotometrically at 540 nm and the percentage of cytotoxicity calculated using the following formula: Cytotoxicity percentage=100×[1−(X/R1)], where X=(absorbance of treated sample at 540 nm)−(absorbance of blank at 540 nm) R1=absorbance of control sample at 540 nm. The IC50 Values of the cytotoxicity defined as the concentration at which 50% of the cells are killed in vitro was calculated for each cell line treated with each of the betulinic acid derivatives.

[2] = test system: PA1; assay: three day MTT cytotoxicity assay, PA1; assay type: cell-based, human; settings: PA1, 72 hours
[3] = test system: DU145; assay: three day MTT cytotoxicity assay, DU145; assay type: cell-based, human; settings: DU145, 72 hours
Protocol: (§1) A number of compounds listed in Table-3 were tested for cytotoxicity against prostate, lung, laryngeal, pancreas, breast, colon and ovarian cancer, leukemia and lymphoma, human tumor cell lines. Briefly, a three day MTT cytotoxicity assay was performed, which is based on the principle of uptake of MTT (3-(4,5-dimethylthiazol-2-yl)-2,5-diphenyl tetrazolium bromide), a tetrazolium salt, by the metabolically active cells where it is metabolized by active mitochondria into a blue colored formazan product that is read spectrophotometrically. MIT was dissolved in phosphate buffered saline with a pH of 7.4 to obtain an MIT concentration of 5 mg/ml; the resulting mixture was filtered through a 0.22-micron filter to sterilize and remove a small amount of insoluble residue. For each type of tumor cell, 10,000 to 15,000 cells were seeded in a 96-well culture plate and incubated with the individual betulinic acid derivatives in a CO2 incubator for a total of 72 hours. Control cells not treated with the betulinic acid derivatives were similarly incubated. The assay was terminated by adding 100 μg (20 μl) of MIT to each well then incubating for additional one hour, and finally adding 50 μl of 10% SDS-0.01N HCl to each well to lyse the cells and dissolve formazan. After incubating for one hour, the plate was read spectrophotometrically at 540 nm and the percentage of cytotoxicity calculated using the following formula: Cytotoxicity percentage=100×[1−(X/R1)], where X=(absorbance of treated sample at 540 nm)−(absorbance of blank at 540 nm) R1=absorbance of control sample at 540 nm. The IC50 Values of the cytotoxicity defined as the concentration at which 50% of the cells are killed in vitro was calculated for each cell line treated with each of the betulinic acid derivatives.

[4] = test system: NIH 3T3 cells; assay: NIH3T3 cytotoxicity test (72 h MTT assay); assay type: cell-based; settings: NIH3T3, 72 hours
Protocol: The cytotoxic effect of chemicals upon NIH 3T3 cells in culture is measured by cell metabolism determination using the previously described MIT assay. Healthy NIH 3T3 cells (an established cell-line), when maintained in culture continuously divide and multiply over time. The basis of this test is that a cytotoxic chemical (regardless of site or mechanism of action) will interfere with this process and, thus, result in a reduction of the growth rate as reflected by cell number. The degree of inhibition of growth, related to the concentration of the test compound, provides an indication of toxicity.
The NIH 3T3 cells are maintained in culture and exposed to test compounds over a range of concentrations and the number of viable cells determined after 72 hours exposure by MIT assay. The number of cells in the presence of test chemicals are compared to that observed in control cultures and the percent inhibition of growth calculated. The IC50 concentration (i.e. the concentration producing 50% inhibition of growth) is determined and expressed as μg/ml. A ratio of IC50 of NIH 3T3 cells to tumor cells is an indicator of predicted toxicity of the molecule and is represented as “Safety Index”. The higher the value, the better is the predicted safety of the molecule.

[5] = test system: Miapaca; assay: three day MTT cytotoxicity assay, Miapaca; assay type: cell-based, human; settings: for IC50 for cell lines Miapaca: 72 hours, MTT; for Specific Index (SI) for cell lines Miapaca: ratio of IC50 of NIH 3T3 cells to Miapaca
Protocol: as §1

[6] = test system: HBL100; assay: three day MTT cytotoxicity assay, HBL100; assay type: cell-based, human; settings: for IC50 for cell lines HBL100: HBL100, 72 hours, MTT; for Specific Index (SI) for cell lines HBL100: ratio of IC50 of NIH 3T3 cells to HBL100
Protocol: as §1

[7] = test system: K562; assay: three day MTT cytotoxicity assay, K562; assay type: cell-based, human; settings: for IC50 for cell lines K562: K562, 72 hours, MTT; for Specific Index (SI) for cell lines K562: ratio of IC50 of NIH 3T3 cells to K562
Protocol: as §1

[8] = test system: A549; assay: three day MTT cytotoxicity assay, A549; assay type: cell-based, human; settings: for IC50 for cell lines A549: A549, 72 hours, MTT; for Specific Index (SI) for cell lines A549: ratio of IC50 of NIH 3T3 cells to A549
Protocol: as §1

Molecule	IC50 for cell lines SW620 [1]	IC50 for cell lines PA1 [2]	IC50 for cell lines DU145 [3]	IC50 for cell lines NIH3T3 [4]	IC50 for cell lines Miapaca [5]	IC50 for cell lines HBL100 [6]	IC50 for cell lines K562 [7]	Specific Index (SI) for cell lines K562 [7]	IC50 for cell lines A549 [8]	Specific Index (SI) for cell lines A549 [8]	Specific Index (SI) for cell lines Miapaca [5]	Specific Index (SI) for cell lines HBL100 [6]
1′-Benzyl-2,3-didehydro-20,29-dihydro-4′-phenylpyrrolo[2′,′:2,3]betulinic acid [Compound 13]	>20 µg/mL	>20 µg/mL	>20 µg/mL	>20 µg/mL	>20 µg/mL	>20 µg/mL	–	–	–	–	–	–
C=C(C)[C@@H]1CC[C@]2(C(=O)O)CC[C@]3(C)C(CCC4[C@@]5(C)Cc6c(n(C)c7ccccc67)C(C)(C)C5CC[C@]43C)C12 (stereo partly drawn) [Compound 3, 2,3-Didehydro-1′-methylindolo[2′,′:2,3]betulinic acid]	–	–	≥ 20 µg/mL	15.12 ± 3.04 µg/mL	5.34 ± 0.96 µg/mL	19.5 ± 2.1 µg/mL	7.73 ± 0.17 µg/mL	1.956	6.9 ± 0.21 µg/mL	2.191	2.831	0.775
CC(C)[C@@H]1CC[C@]2(C(=O)O)CC[C@]3(C)C(CCC4[C@@]5(C)Cc6c(n(C)c7ccccc67)C(C)(C)C5CC[C@]43C)C12 (stereo partly drawn) [Compound 4, 2,3-Didehydro-20,29-dihydro-1′-methylindolo[2′,3′,2,3]betulinic acid]	–	>20 µg/mL	>20 µg/mL	>20 µg/mL	5.4 ± 0.43 µg/mL	14.14 ± 0.8 µg/mL	10.85 ± 1.5 µg/mL	>1.843	6.5 ± 3.4 µg/mL	>3.076	>3.703	>1.414
C=C(C)[C@@H]1CC[C@]2(C(=O)O)CC[C@]3(C)[C@H](CC[C@@H]4[C@@]5(C)Cc6c([nH]c7ccc(F)cc67)C(C)(C)[C@@H]5CC[C@]43C)[C@@H]12 [Compound 7, 2,3-Didehydro-5′-fluoroindolo[2′,′:2,3]betulinic acid]	9.16 µg/mL	–	–	>20 µg/mL	17.4 ± 2.6 µg/mL	>20 µg/mL	10.95 ± 0.93 µg/mL	>1.826	17.8 ± 1.79 µg/mL	>1.123	>1.149	–
CC(C)[C@@H]1CC[C@]2(C(=O)O)CC[C@]3(C)[C@H](CC[C@@H]4[C@@]5(C)Cc6c([nH]c7ccc(F)cc67)C(C)(C)[C@@H]5CC[C@]43C)[C@@H]12 [Compound 8, 2,3-Didehydro-5′-fluoro-20,29-dihydroindolo[2′,′:2,3]betulinic acid]	7.28 µg/mL	–	–	14.59 ± 0.33 µg/mL	8.4 ± 0.76 µg/mL	>20 µg/mL	14.01 ± 0.75 µg/mL	1.041	8.89 ± 0.84 µg/mL	1.641	1.737	<0.730
CC(C)[C@@H]1CC[C@]2(C(=O)O)CC[C@]3(C)[C@H](CC[C@@H]4[C@@]5(C)Cc6c(oc7ccccc67)C(C)(C)[C@@H]5CC[C@]43C)[C@@H]12 [Compound 12, 2,3-Didehydro-20,29-dihydrobenzfurano[2′,3′:2,3]betulinic acid]	–	>20 µg/mL	>20 µg/mL	20 ± 5.6 µg/mL	8.8 ± 0.36 µg/mL	>20 µg/mL	15.28 ± 0.18 µg/mL	1.309	7.1 ± 1.6 µg/mL	2.817	2.273	<1

Source: patent US8022055B2, “Betulinic acid derivatives” (Dabur Pharma Limited, priority 2005, dated 2011)
